Experimental data from ChEMBL document CHEMBL5465560, “Selectivity Literature for EUbOPEN Chemogenomic Library” (2024).

Experiments:
[1] = system: Receptor-type tyrosine-protein kinase FLT3 (Homo sapiens), P36888 [UNDEFINED MUTATION]; experiment: Selectivity interaction (KinomeScan (DiscoverX)) EUB0001049a FLT3; conditions: at 1 µM
[2] = target: Leukocyte tyrosine kinase receptor (Homo sapiens, UniProt P29376); experiment: Selectivity interaction (KinomeScan (DiscoverX)) EUB0000229b LTK; conditions: at 10 µM
[3] = system: Tyrosine-protein kinase ABL1 (Homo sapiens), P00519 [T315I]; experiment: Selectivity interaction (KinomeScan (DiscoverX)) EUB0001079a ABL1; conditions: at 1 µM
[4] = target: Hepatocyte growth factor receptor (Homo sapiens, UniProt P08581); conditions: at 10 µM
[5] = target: T1, Serine/threonine-protein kinase TAO1 (Homo sapiens) (UniProt Q7L7X3); experiment: Selectivity interaction (Ambit KINOMEscan and KiNATiv profiling in Jurkat cells) EUB0000090b TAOK1; assay type: cell-based; conditions: at 1 µM
T1 sequence (whole entry): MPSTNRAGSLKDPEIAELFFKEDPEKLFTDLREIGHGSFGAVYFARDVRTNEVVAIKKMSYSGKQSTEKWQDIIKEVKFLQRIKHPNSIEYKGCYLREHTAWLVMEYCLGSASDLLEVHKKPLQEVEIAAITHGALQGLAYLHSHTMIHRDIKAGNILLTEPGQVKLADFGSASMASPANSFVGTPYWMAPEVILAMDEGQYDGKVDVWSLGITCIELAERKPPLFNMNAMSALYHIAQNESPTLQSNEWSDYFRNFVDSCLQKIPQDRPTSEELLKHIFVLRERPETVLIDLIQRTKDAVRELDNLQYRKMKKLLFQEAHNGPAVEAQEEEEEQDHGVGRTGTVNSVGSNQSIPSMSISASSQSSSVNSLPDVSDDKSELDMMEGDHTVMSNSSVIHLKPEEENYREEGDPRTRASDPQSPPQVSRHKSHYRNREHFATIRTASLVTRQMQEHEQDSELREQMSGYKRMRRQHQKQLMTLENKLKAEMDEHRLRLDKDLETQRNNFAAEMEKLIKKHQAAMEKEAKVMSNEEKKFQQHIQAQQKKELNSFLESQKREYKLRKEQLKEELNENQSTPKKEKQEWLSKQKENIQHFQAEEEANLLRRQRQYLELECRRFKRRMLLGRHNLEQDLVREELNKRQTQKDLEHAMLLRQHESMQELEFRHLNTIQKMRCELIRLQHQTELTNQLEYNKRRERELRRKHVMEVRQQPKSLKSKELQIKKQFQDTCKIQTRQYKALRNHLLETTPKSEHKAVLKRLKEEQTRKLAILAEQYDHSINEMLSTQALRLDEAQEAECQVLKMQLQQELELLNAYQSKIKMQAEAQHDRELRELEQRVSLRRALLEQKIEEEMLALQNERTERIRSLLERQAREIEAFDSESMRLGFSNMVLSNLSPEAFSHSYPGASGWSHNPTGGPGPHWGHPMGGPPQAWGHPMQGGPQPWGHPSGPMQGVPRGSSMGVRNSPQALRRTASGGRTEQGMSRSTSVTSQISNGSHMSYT

[6] = target: Tyrosine-protein kinase Srms (Homo sapiens) (UniProt Q9H3Y6); conditions: at 10 µM
[7] = target: Protein kinase C alpha type (Homo sapiens, UniProt P17252); experiment: Selectivity interaction (ActivX KiNativ screen (ex vivo kinase selectivity in human PBMCs)) EUB0001619a PRKCA; assay type: cell-based; conditions: PBMC, at 1 µM
[8] = target: T2, Mitogen-activated protein kinase kinase kinase 19 (Homo sapiens) (UniProt Q56UN5); experiment: Selectivity interaction (KinomeScan (DiscoverX)) EUB0000655a MAP3K19; conditions: at 10 µM
T2 sequence (whole entry): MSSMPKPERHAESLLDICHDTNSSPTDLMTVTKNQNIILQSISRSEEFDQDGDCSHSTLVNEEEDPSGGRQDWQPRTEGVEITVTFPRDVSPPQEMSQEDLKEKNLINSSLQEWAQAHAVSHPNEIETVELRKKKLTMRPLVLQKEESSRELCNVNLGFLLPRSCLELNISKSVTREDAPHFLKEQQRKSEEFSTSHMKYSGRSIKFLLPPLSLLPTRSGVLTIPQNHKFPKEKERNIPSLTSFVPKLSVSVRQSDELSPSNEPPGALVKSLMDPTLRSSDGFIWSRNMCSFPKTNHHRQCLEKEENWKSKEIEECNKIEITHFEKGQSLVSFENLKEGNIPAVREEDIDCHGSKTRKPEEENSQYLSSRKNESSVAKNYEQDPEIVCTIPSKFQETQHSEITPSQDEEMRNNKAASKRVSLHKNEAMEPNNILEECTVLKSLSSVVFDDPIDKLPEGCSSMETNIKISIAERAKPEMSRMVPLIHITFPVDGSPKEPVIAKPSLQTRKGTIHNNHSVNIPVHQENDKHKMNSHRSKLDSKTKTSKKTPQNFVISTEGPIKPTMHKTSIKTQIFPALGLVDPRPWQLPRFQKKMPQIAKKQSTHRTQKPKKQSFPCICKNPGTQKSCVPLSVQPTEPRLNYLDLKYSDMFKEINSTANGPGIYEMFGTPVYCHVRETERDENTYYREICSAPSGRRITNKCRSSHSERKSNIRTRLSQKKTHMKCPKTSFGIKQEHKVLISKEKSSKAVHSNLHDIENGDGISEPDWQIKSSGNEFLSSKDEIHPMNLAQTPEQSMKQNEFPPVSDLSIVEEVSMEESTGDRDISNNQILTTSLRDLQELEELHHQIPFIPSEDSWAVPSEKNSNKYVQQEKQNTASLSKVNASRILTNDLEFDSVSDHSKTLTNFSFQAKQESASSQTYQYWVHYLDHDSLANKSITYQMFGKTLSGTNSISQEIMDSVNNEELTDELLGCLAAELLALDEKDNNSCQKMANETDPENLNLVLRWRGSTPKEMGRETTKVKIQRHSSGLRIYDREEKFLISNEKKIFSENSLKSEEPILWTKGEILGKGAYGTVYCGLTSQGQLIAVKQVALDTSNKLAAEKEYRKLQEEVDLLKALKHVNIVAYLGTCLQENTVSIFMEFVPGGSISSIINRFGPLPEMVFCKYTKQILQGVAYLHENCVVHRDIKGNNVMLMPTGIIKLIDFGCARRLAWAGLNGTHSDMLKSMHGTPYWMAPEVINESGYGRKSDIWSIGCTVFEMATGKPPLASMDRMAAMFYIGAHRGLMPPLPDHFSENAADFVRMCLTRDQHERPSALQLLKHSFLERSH

Hepatocyte growth factor receptor, sequence (P08581 whole entry): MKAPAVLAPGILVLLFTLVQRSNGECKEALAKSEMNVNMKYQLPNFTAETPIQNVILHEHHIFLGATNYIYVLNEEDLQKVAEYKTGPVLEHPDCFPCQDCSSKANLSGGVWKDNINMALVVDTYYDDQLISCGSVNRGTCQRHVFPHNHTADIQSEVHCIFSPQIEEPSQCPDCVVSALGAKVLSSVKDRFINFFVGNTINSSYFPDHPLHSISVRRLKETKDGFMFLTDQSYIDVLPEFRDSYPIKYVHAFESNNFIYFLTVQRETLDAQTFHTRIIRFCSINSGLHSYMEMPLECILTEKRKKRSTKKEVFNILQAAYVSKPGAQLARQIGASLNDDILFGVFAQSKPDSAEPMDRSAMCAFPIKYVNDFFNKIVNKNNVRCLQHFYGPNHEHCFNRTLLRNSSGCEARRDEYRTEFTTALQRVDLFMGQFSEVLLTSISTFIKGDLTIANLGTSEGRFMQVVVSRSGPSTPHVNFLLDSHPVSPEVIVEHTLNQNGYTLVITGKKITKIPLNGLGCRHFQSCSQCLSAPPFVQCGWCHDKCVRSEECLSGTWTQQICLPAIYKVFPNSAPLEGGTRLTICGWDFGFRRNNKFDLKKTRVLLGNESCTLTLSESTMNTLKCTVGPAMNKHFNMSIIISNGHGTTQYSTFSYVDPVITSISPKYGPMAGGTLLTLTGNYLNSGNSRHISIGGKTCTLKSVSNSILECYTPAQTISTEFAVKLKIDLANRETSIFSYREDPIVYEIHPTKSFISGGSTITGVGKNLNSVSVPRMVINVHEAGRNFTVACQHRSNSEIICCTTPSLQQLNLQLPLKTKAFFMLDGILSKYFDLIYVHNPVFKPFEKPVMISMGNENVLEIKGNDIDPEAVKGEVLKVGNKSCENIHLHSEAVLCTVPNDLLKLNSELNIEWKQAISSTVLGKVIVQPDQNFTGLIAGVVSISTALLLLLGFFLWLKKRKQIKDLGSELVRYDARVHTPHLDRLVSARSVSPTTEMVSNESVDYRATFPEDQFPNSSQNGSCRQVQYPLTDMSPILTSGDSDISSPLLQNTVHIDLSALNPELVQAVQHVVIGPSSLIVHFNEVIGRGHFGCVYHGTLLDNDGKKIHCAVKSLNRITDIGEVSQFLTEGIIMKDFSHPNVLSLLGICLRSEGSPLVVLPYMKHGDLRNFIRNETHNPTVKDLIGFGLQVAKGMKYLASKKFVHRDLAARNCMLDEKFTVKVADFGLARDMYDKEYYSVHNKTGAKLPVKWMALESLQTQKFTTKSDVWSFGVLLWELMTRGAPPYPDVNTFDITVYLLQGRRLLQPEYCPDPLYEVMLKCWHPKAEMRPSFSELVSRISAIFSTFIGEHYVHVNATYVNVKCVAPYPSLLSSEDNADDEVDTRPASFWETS
Leukocyte tyrosine kinase receptor, sequence (P29376 whole entry): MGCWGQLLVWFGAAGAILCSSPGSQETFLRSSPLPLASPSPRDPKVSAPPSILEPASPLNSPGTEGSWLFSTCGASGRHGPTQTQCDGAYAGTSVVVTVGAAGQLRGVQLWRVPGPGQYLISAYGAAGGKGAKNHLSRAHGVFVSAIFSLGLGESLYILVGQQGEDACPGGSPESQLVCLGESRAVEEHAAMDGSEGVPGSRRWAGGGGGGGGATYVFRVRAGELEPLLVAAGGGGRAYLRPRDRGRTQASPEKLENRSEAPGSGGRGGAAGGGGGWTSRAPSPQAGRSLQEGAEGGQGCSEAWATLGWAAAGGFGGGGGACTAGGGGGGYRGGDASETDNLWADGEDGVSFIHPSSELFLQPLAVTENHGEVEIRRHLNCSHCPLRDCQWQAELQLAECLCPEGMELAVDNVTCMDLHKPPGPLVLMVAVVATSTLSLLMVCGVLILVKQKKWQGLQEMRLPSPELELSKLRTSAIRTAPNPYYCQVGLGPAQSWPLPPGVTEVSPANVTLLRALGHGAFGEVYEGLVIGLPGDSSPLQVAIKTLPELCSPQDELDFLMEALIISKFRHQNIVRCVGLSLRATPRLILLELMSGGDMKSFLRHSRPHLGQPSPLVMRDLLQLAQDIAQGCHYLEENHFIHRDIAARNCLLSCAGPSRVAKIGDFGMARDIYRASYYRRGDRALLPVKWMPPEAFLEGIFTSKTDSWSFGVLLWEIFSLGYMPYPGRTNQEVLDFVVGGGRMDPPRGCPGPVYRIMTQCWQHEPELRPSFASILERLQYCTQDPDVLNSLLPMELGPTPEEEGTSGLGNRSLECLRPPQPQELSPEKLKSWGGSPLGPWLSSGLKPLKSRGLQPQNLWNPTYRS
Receptor-type tyrosine-protein kinase FLT3 (Homo sapiens), P36888 [UNDEFINED MUTATION], sequence (P36888 whole entry, looked up, change not shown): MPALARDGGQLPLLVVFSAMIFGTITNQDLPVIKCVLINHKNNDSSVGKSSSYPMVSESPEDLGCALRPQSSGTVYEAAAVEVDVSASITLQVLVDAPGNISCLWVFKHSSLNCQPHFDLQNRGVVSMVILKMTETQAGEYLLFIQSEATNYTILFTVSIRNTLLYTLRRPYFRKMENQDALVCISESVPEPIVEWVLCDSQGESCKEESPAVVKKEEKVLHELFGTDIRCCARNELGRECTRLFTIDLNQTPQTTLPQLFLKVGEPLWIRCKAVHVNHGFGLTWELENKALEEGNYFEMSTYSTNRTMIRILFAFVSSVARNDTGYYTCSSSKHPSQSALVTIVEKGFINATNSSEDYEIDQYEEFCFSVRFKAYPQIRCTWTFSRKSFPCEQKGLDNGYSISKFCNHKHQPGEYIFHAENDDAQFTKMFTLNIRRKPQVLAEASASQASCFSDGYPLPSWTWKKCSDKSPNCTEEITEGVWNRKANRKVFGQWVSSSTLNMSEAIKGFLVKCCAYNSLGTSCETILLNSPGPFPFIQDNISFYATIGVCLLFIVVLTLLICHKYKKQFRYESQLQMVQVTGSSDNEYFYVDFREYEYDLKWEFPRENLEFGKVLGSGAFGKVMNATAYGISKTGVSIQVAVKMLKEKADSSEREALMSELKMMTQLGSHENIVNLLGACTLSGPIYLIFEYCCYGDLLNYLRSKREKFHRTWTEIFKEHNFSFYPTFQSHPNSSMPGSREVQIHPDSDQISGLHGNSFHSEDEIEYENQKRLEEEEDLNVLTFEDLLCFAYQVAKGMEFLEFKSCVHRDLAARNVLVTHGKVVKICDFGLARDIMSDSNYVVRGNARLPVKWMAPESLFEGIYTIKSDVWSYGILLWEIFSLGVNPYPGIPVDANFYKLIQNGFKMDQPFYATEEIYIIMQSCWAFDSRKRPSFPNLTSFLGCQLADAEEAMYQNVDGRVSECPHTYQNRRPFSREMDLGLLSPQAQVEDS
Tyrosine-protein kinase Srms (Homo sapiens), sequence (Q9H3Y6 whole entry): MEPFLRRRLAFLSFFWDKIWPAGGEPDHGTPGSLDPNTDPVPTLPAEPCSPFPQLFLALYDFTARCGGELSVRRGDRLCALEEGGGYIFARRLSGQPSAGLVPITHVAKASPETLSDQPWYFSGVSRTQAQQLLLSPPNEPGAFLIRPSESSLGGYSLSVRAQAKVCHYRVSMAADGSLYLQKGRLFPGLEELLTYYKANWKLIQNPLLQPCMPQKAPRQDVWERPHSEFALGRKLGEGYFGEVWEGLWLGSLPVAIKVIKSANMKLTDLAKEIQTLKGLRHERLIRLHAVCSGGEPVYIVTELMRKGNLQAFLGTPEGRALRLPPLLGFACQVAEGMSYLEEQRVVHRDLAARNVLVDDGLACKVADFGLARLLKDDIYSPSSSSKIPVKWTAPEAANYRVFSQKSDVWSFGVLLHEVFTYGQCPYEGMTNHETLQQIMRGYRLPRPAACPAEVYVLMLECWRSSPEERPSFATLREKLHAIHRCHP

COc1cc(Nc2nc(C)cc(-c3cnn4nc(OC)ccc34)n2)cc(C(F)(F)F)c1
% of control [1]: 73%

COc1cc(N(C)c2ccnc3ccc(C(F)(F)F)cc23)cc(OC)c1OC
% binding [2]: 96%

Nc1cnc(N2CCc3cc(S(=O)(=O)Nc4c(F)cc(Cl)cc4F)cc(N4CCCC4=O)c32)nc1 [TP-020n]
% of control [3]: 98%

CCN(CC)CCCCNc1ncc2cc(-c3cc(OC)cc(OC)c3)c(NC(=O)NC(C)(C)C)nc2n1
% of control [4]: 100%

CN(C)C/C=C/C(=O)Nc1ccc(C(=O)N2CCCC(Nc3ncc(Cl)c(-c4c[nH]c5ccccc45)n3)C2)cc1 (stereo not drawn)
% of control [5]: 93%

Cc1cc([C@@H](C)Nc2ccccc2C(=O)O)c2nc(N3CCOCC3)cc(=O)n2c1 [AZD-6482]
% of control [6]: 63%

N#Cc1cccc(-c2c[nH]c3ncnc(N4CCOCC4)c23)c1
% of inhibition [7]: 57%

CN(C)CCOc1ccc(-c2nc(-c3ccncc3)c(-c3ccc4c(c3)CC/C4=N\O)[nH]2)cc1
% of control [8]: 30%
